The values that follow come from ChEMBL document CHEMBL3526135, “Induction of xenobiotic receptors, transporters, and drug metabolizing enzymes by oxycodone” (Drug Metab Dispos, 2013).

Holding throughout (type): ADME, organism-based
Set-up in all cases: dose 15 mg/kg, route intraperitoneal

Data set [1] deals with CYP2b2. Nature of the data set: Effect on CYP2b2 mRNA expression in Sprague-Dawley rat liver at 15 mg/kg, ip administered twice daily every 12 hrs for 8 days by microarray analysis relative to control. Conditions: read-out: FC; call rule not given here.
For another data set, the system named is Ces2. Nature of the data set: Effect on Ces2 mRNA expression in Sprague-Dawley rat liver at 15 mg/kg, ip administered twice daily every 12 hrs for 8 days by microarray analysis relative to control. Conditions: read-out: FC.
In the next data set the test system is Slc25a29. Description: Effect on Slc25a29 mRNA expression in Sprague-Dawley rat liver at 15 mg/kg, ip administered twice daily every 12 hrs for 8 days by microarray analysis relative to control. Conditions: read-out: FC.
The subject of data set [2] is Rattus norvegicus. Nature of the data set: Effect on CAR mRNA expression in Sprague-Dawley rat liver at 15 mg/kg, ip administered twice daily every 12 hrs for 8 days by qRT-PCR analysis relative to control. To be noted: in vivo. (Quantitative PCR measures a nucleic acid by following its amplification.)
The test system of data set [3] is Rattus norvegicus. Nature of the data set: Effect on CYP2c13 mRNA expression in Sprague-Dawley rat liver at 15 mg/kg, ip administered twice daily every 12 hrs for 8 days by qRT-PCR analysis relative to control. To be noted: in vivo.
A further data set deals with NR1I2. Description: Effect on NR1I2 mRNA expression in Sprague-Dawley rat liver at 15 mg/kg, ip administered twice daily every 12 hrs for 8 days by microarray analysis relative to control. Conditions: read-out: FC.
The test system of data set [4] is Rattus norvegicus. Nature of the data set: Effect on AhR mRNA expression in Sprague-Dawley rat liver at 15 mg/kg, ip administered twice daily every 12 hrs for 8 days by qRT-PCR analysis relative to control. Conditions: in vivo.
In the next data set the test system is Slc27a5. Description: Effect on Slc27a5 mRNA expression in Sprague-Dawley rat liver at 15 mg/kg, ip administered twice daily every 12 hrs for 8 days by microarray analysis relative to control. Conditions: read-out: FC.
The next data set relates to Abca8b. Description: Effect on Abca8b mRNA expression in Sprague-Dawley rat liver at 15 mg/kg, ip administered twice daily every 12 hrs for 8 days by microarray analysis relative to control. Conditions: read-out: FC.
A further data set concerns Slc39a4. Nature of the data set: Effect on Slc39a4 mRNA expression in Sprague-Dawley rat liver at 15 mg/kg, ip administered twice daily every 12 hrs for 8 days by microarray analysis relative to control. Conditions: read-out: FC.
The subject of a further data set is Slc16a10. Description: Effect on Slc16a10 mRNA expression in Sprague-Dawley rat liver at 15 mg/kg, ip administered twice daily every 12 hrs for 8 days by microarray analysis relative to control. Conditions: read-out: FC.
The subject of data set [5] is Rattus norvegicus. Nature of the data set: Effect on Slco1a4 mRNA expression in Sprague-Dawley rat liver at 15 mg/kg, ip administered twice daily every 12 hrs for 8 days by qRT-PCR analysis relative to control. Conditions: in vivo.
In data set [6] the test system is CYP2b2. Description: Upregulation of CYP2b2 protein expression in Sprague-Dawley rat liver microsomes at 15 mg/kg, ip administered twice daily every 12 hrs for 8 days by Western blot analysis relative to control. To be noted: read-out: FC.
Data set [7] concerns Rattus norvegicus. Description: Effect on Por mRNA expression in Sprague-Dawley rat liver at 15 mg/kg, ip administered twice daily every 12 hrs for 8 days by qRT-PCR analysis relative to control. To be noted: in vivo.
The test system of data set [8] is Rattus norvegicus. Nature of the data set: Effect on PXR mRNA expression in Sprague-Dawley rat liver at 15 mg/kg, ip administered twice daily every 12 hrs for 8 days by qRT-PCR analysis relative to control. Conditions: in vivo.
The next data set has as its system Por. Nature of the data set: Effect on Por mRNA expression in Sprague-Dawley rat liver at 15 mg/kg, ip administered twice daily every 12 hrs for 8 days by microarray analysis relative to control. Conditions: read-out: FC.
For data set [9], the system named is Rattus norvegicus. Description: Effect on CYP2d2 mRNA expression in Sprague-Dawley rat liver at 15 mg/kg, ip administered twice daily every 12 hrs for 8 days by qRT-PCR analysis relative to control. Conditions: in vivo.
Another data set concerns CYP2j4. Description: Effect on CYP2j4 mRNA expression in Sprague-Dawley rat liver at 15 mg/kg, ip administered twice daily every 12 hrs for 8 days by microarray analysis relative to control. Conditions: read-out: FC.
Data set [10] relates to Rattus norvegicus. Description: Effect on GAPDH mRNA expression in Sprague-Dawley rat liver at 15 mg/kg, ip administered twice daily every 12 hrs for 8 days by qRT-PCR analysis relative to control. To be noted: in vivo.
The test system of a further data set is AhR. Nature of the data set: Effect on AhR mRNA expression in Sprague-Dawley rat liver at 15 mg/kg, ip administered twice daily every 12 hrs for 8 days by microarray analysis relative to control. To be noted: read-out: FC.
The subject of another data set is CYP4b1. Description: Effect on CYP4b1 mRNA expression in Sprague-Dawley rat liver at 15 mg/kg, ip administered twice daily every 12 hrs for 8 days by microarray analysis relative to control. Conditions: read-out: FC.

For `COc1ccc2c3c1O[C@H]1C(=O)CC[C@@]4(O)[C@@H](C2)N(C)CC[C@]314.Cl` [OXYCODONE HYDROCHLORIDE], the fold induction at 8 days is 6 with CYP2b2 [1]; 2.8 with Ces2; 1.5 with Slc25a29; 2.9 with NR1I2; 1.6 with Slc27a5; 2.3 in the data set on Abca8b. Besides, the fold induction at 8 days in the data set on Slc39a4 was determined as 1.6; in the data set on Slc16a10, 3; in the data set with CYP2b2 [6] it was 5; in the data set with Por it was 7; in the data set on CYP2j4, 2.4; in the data set with AhR, 2.3. Also, in the data set with CYP4b1, the fold induction at 8 days stood at 1.9. Also, the outcome with Rattus norvegicus [2], in the data set with Rattus norvegicus [3], in the data set with Rattus norvegicus [4], in the data set with Rattus norvegicus [5], in the data set with Rattus norvegicus [7] and in the data set with Rattus norvegicus [8] was Active. Also, the outcome in the data set with Rattus norvegicus [9] and in the data set with Rattus norvegicus [10] was Active.
